Results as given in patent publication US4822773A (Merck & Co., Inc., priority 1987, dated 1989).

Legend:
in vivo = details: rat
Method: Experiments were performed with rats wherein each animal received an aqueous microenema applied to the rectal cavity. The microenemas contained target drug entity (amount shown in table) in the presence or absence of 5 mg lauroylcholine chloride or palmitoylcholine iodide. Blood levels were monitored and the amount of drug absoreed calculated against intravenous administration and expressed as percent bioavailability.
The amount of drug absorbed is expressed as percent bioavailability versus intravenous administration
Blood was collected and sodium cefoxitin measured. Absorption of sodium cefoxitin is expressed as percent bioavailability versus intravenous administration.

[1] = Small intestinal (duodenal) absorption from aqueous solution in rats, percent bioavailability versus intravenous administration; assay type: in vivo; details: vs intravenous
Method: Blood levels were monitored and the amount of polypeptide absorbed calculated against intravenous administration and expressed as percent bioavailability.
Experiments were performed as in Example 5. The solutions contained 10 mg/kg of cefoxitin and 20 mg/kg of absorption promoters. Blood levels of cefoxitin were monitored and the bioavailability of cefoxitin absorbed was calculated against intravenous administration.

## CO[C@@]1(NC(=O)Cc2cccs2)C(=O)N2C(C(=O)O)=C(COC(N)=O)CS[C@@H]21 [Sodium cefoxitin]
In vivo
  Percent Bioavailability (mean ± SD) with Control: 2 ± 1.1%
In vivo; pH 6
  Sodium Cefoxitin Percent Bioavailability (mean ± SD), compound None: 2 ± 1.1%
[1]; duodenal solution, 10 mg/kg cefoxitin alone
  Percent Bioavailability (mean ± SD) of cefoxitin, adjuvant None: 2 ± 1.1%

## Nc1ccn([C@@H]2O[C@H](CO)[C@@H](O)[C@@H]2O)c(=O)n1 [Cytarabine]
In vivo
  Percent Bioavailability (mean ± SD) with Control: 0.5 ± 0.1%

## CC(C)[C@@H]1NC(=O)[C@H](CCCCN)NC(=O)[C@@H](Cc2c[nH]c3ccccc23)NC(=O)[C@H](Cc2ccc(O)cc2)NC(=O)[C@H](C)N(C)C(=O)[C@H](Cc2ccccc2)NC1=O [cyclo(N--Me--Ala--Try--DTrp--Lys--Val--Phe)acetate]
In vivo; Percent Bioavailability (mean ± SD) with Control
  bioavailability: 7 ± 3.5%
[1]; rat, blood, aqueous solution applied to duodenal region, 0.1 mg polypeptide alone, read-out: Percent Bioavailability (mean ± SD), adjuvant None
  bioavailability: 1%

## Cn1c(=O)c2[nH]cnc2n(C)c1=O [Theophylline]
In vivo
  Absorption of the drug by itself: absorbed well by itself
  Percent Bioavailability (mean ± SD) with Control: 75 ± 3.3%
